# Data as given in ChEMBL document CHEMBL4706495, “A novel class of small molecule inhibitors with radioprotective properties” (Eur J Med Chem, 2020).
# Assays:
# Conditions in all cases: read-out: Activity
# Jurkat = test: Cytotoxicity against human Jurkat cells assessed as cell viability at 1 uM measured after 48 hrs by WST-1 assay relative to control; assay type: functional
# MOLT-4 = test: Cytotoxicity against human MOLT-4 cells assessed as cell viability at 1 uM measured after 48 hrs by WST-1 assay relative to control; assay type: functional
# A549 = test: Cytotoxicity against human A549 cells assessed as cell viability at 1 uM measured after 48 hrs by WST-1 assay relative to control; assay type: functional
# HT-29 = test: Cytotoxicity against human HT-29 cells assessed as cell viability at 1 uM measured after 48 hrs by WST-1 assay relative to control; assay type: functional
# PANC-1 = test: Cytotoxicity against human PANC-1 cells assessed as cell viability at 1 uM measured after 48 hrs by WST-1 assay relative to control; assay type: functional
# A2780 = test: Cytotoxicity against human A2780 cells assessed as cell viability at 1 uM measured after 48 hrs by WST-1 assay relative to control; assay type: functional
# HeLa = test: Cytotoxicity against human HeLa cells assessed as cell viability at 1 uM measured after 48 hrs by WST-1 assay relative to control; assay type: functional
# MCF7 = test: Cytotoxicity against human MCF7 cells assessed as cell viability at 1 uM measured after 48 hrs by WST-1 assay relative to control; assay type: functional
# SAOS-2 = test: Cytotoxicity against human SAOS-2 cells assessed as cell viability at 1 uM measured after 48 hrs by WST-1 assay relative to control; assay type: functional
# [1] = Cytotoxicity against human MRC5 cells assessed as cell viability at 1 uM measured after 48 hrs by WST-1 assay relative to control; assay type: cell-based
smiles,measurement,setting,value
COc1cccc2c1C(=O)c1c(O)c3c(c(O)c1C2=O)C[C@@](O)(C(=O)CO)C[C@@H]3O[C@H]1C[C@H](N)[C@H](O)[C@H](C)O1 [DOXORUBICIN],viability at 1 µM,Jurkat,2%
same,viability at 1 µM,MOLT-4,1%
same,viability at 1 µM,A549,42%
same,viability at 1 µM,HT-29,55%
same,viability at 1 µM,PANC-1,78%
same,viability at 1 µM,A2780,8%
same,viability at 1 µM,HeLa,76%
same,viability at 1 µM,MCF7,32%
same,viability at 1 µM,SAOS-2,22%
same,"viability at 48 h, 1 µM",[1],22%
